The source made the active and inactive calls. The calls are words filed in the database; no cut-off is given here.
Key:
SW-620 [1] = assay: Downregulation of ATM level in human SW620 cells measured after 12 hrs by immunoblot analysis; assay type: functional, cell-based; conditions: dose 2.5-10 µM
[2] = Toxicity in Balb/c nude mouse assessed as effect on body weight loss at 15 mg/kg/day administered for 14 days […]; assay type: organism-based; conditions: in vivo, 336 h, time 14 day
SW13 = assay: Cytotoxicity against human SW13 cells assessed as reduction in cell viability incubated for 48 hrs by MTT assay; conditions: SW13, 48 h
A2780 = assay: Cytotoxicity against human A2780 cells assessed as reduction in cell viability incubated for 48 hrs by MTT assay; conditions: A2780, 48 h
SW-620 [3] = assay: Antitumor activity against human SW620 cells xenografted in Balb/c nude mouse model assessed as decrease in ATM protein level at 15 mg/kg/day measured after 14 days by Western blot analysis; assay type: functional, organism-based; conditions: time 14.0 day
SW-620 [4] = assay: Antitumor activity against human SW620 cells xenografted in Balb/c nude mouse model assessed as decrease in pro caspase 3 level at 15 mg/kg/day measured after 14 days by Western blot analysis; assay type: functional, organism-based; conditions: time 14.0 day
SW-620 [5] = assay: Downregulation of BCL2 level in human SW620 cells at 1.25 to 10 uM measured after 12 hrs by immunoblot analysis; assay type: functional, cell-based; conditions: dose 1.25-10 µM
[6] = Toxicity in Balb/c nude mouse assessed as drug tolerance at 15 mg/kg/day administered for 14 days in presence of AZD6738; assay type: organism-based; conditions: in vivo, 336 h, time 14 day
SW-620 [7] = assay: Cytotoxicity against human SW620 cells transfected with NC shRNA assessed as reduction in cell viability measured after 48 hrs by MTT assay; conditions: SW-620, 48 h
[8] = Downregulation of ATM level in human SW620 cells transfected with NC shRNA by immunoblot analysis; assay type: functional, SW-620
SW-620 [9] = assay: Induction of DNA damage in human SW620 cells assessed as gamma-H2AX accumulation at 10 uM by immunoblot analysis; assay type: functional, cell-based; conditions: time <= 24.0 hrs, TDE = time-dependent effect
SW480 [10] = assay: Cytotoxicity against human SW480 cells assessed as reduction in cell viability incubated for 48 hrs by MTT assay; conditions: SW480, 48 h
SW-620 [11] = assay: Antitumor activity against human SW620 cells xenografted in Balb/c nude mouse model assessed as decrease in cleaved caspase 3 level at 15 mg/kg/day measured after 14 days by Western blot analysis; assay type: functional, organism-based; conditions: time 14.0 day
SW-620 [12] = assay: Antitumor activity against human SW620 cells xenografted in Balb/c nude mouse model assessed as increase in gamma-H2AX at 15 mg/kg/day measured after 14 days by Western blot analysis; assay type: functional, organism-based; conditions: time 14.0 day
SW-620 [13] = assay: Antitumor activity against human SW620 cells xenografted in Balb/c nude mouse model assessed as reduction in tumor load at 15 mg/kg/day administered for 14 days by vernier caliper based analysis; assay type: functional, organism-based; conditions: time 14.0 day
SW-620 [14] = assay: Downregulation of KDM4B level in human SW620 cells measured after 12 hrs by immunoblot analysis; assay type: functional, cell-based; conditions: dose 1.25-10 µM
SW480 [15] = assay: Cytotoxicity against human SW480 cells transfected with ATM shRNA assessed as reduction in cell viability measured after 48 hrs by MTT assay; conditions: SW480, 48 h
HCT-116 [16] = assay: Cytotoxicity against human HCT-116 cells transfected with ATM shRNA assessed as reduction in cell viability measured after 48 hrs by MTT assay; conditions: HCT-116, 48 h
[17] = Downregulation of ATM level in human SW620 cells transfected with ATM shRNA by immunoblot analysis; assay type: functional, SW-620
SW480 [18] = assay: Potentiation of AZD6738 induced DNA damage in human SW480 cells assessed as gamma-H2AX accumulation in nuclei at 5 uM incubated for 12 hrs by immunohistochemical staining based analysis; assay type: functional, cell-based
SW-620 [19] = assay: Antitumor activity against human SW620 cells xenografted in Balb/c nude mouse model assessed as increase in cleaved-caspase 3 level at 15 mg/kg/day measured after 14 days by Western blot analysis; assay type: functional, organism-based; conditions: time 14.0 day
HCT-116 [20] = assay: Cytotoxicity against human HCT-116 cells assessed as reduction in cell viability incubated for 48 hrs by MTT assay; conditions: HCT-116, 48 h
SW-620 [21] = assay: Downregulation of PROX1 level in human SW620 cells at 10 uM measured after 12 hrs in presence of tert-butyl ((S)-1-((2S,4R)-4-hydroxy-2-((4-(4-methylthiazol-5-yl)benzyl)carbamoyl)pyrrolidin-1-yl)-3,3-dimethyl-1-oxobutan-2-yl)carbamate by immunoblot analysis; assay type: functional, cell-based
[22] = Toxicity in Balb/c nude mouse assessed as drug tolerance at 15 mg/kg/day administered for 14 days; assay type: organism-based; conditions: in vivo, 336 h, time 14 day
SW-620 [23] = assay: Antitumor activity against human SW620 cells xenografted in Balb/c nude mouse model assessed as inflammatory cell infiltration at 15 mg/kg/day measured after 14 days by H and E staining based analysis; assay type: functional, organism-based; conditions: time 14.0 day
SW-620 [24] = assay: Antitumor activity against human SW620 cells xenografted in Balb/c nude mouse model assessed as increase in gamma-H2AX level at 15 mg/kg/day measured after 14 days by Western blot analysis; assay type: functional, organism-based; conditions: time 14.0 day
SW-620 [25] = assay: Induction of DNA damage in human SW620 cells assessed as accumulation of phosphorylated-chk2 (Thr68) at 10 uM by immunoblot analysis; assay type: functional, cell-based; conditions: time <= 24.0 hrs, TDE = time-dependent effect
HCT-116 [26] = assay: Cytotoxicity against human HCT-116 cells transfected with NC shRNA assessed as reduction in cell viability measured after 48 hrs by MTT assay; conditions: HCT-116, 48 h

Question: For `Cc1ncsc1-c1ccc(CNC(=O)[C@@H]2C[C@@H](O)CN2C(=O)[C@@H](NC(=O)CCCCCn2cc(CCCN3C(=O)/C(=C4/C(=O)Nc5ccccc54)c4ccccc43)nn2)C(C)(C)C)cc1`, which Activity (SW-620 [1]) is on record?
Answer: Dose-Dependent Effect

Question: What about the Activity [2] of the same molecule?
Answer: Non-Toxic

Question: And the IC50 (SW13)?
Answer: 3.31 µM

Question: What about the IC50 (A2780) of the same molecule?
Answer: 3.96 µM

Question: What about the Activity (SW-620 [3]) of the same molecule?
Answer: Active

Question: What about the Activity (SW-620 [4]) of the same molecule?
Answer: Active

Question: And the Activity (SW-620 [5])?
Answer: Active

Question: And the Activity [6]?
Answer: Non-Toxic

Question: What about the IC50 (SW-620 [7]) of the same molecule?
Answer: 3.7 µM

Question: And the Activity [8]?
Answer: 100%

Question: What about the Activity (SW-620 [9]) of the same molecule?
Answer: Tde

Question: And the IC50 (SW480 [10])?
Answer: 2.59 µM

Question: What about the Activity (SW-620 [11]) of the same molecule?
Answer: Active

Question: What about the Activity (SW-620 [12]) of the same molecule?
Answer: Active

Question: What about the Activity (SW-620 [13]) of the same molecule?
Answer: Active

Question: What about the Activity (SW-620 [14]) of the same molecule?
Answer: Dose-Dependent Effect

Question: And the IC50 (SW480 [15])?
Answer: 12.1 µM

Question: And the IC50 (HCT-116 [16])?
Answer: 26.4 µM

Question: And the Activity [17]?
Answer: 25%

Question: What about the Activity (SW480 [18]) of the same molecule?
Answer: Active

Question: And the Activity (SW-620 [19])?
Answer: Active

Question: And the IC50 (HCT-116 [20])?
Answer: 5.82 µM

Question: And the Activity (SW-620 [21])?
Answer: Active

Question: What about the Activity [22] of the same molecule?
Answer: Non-Toxic

Question: What about the Activity (SW-620 [23]) of the same molecule?
Answer: Active

Question: What about the Activity (SW-620 [24]) of the same molecule?
Answer: Active

Question: And the Activity (SW-620 [25])?
Answer: Tde

Question: And the IC50 (HCT-116 [26])?
Answer: 5.82 µM
